Reference: ChEMBL document CHEMBL1132710, “Antineoplastic agents. 410. Asymmetric hydroxylation of trans-combretastatin A-4” (1999)
Values after ≈ are worked out from the molar mass of the structure shown.

Assays:
Assay type in all cases: functional
[1] = tested on: FaDu; assay: Compound was evaluated against Human cell line pharynx FADU
[2] = tested on: DU-145; assay: Compound was evaluated against Human cell line prostate DU-145
[3] = tested on: P388; assay: Compound was evaluated against P388 mouse Leukemia cell line; conditions: read-out: ED50 (the source's name)
[4] = tested on: NCI-H460; assay: Compound was evaluated against Human cell line lung-NSC NCI-H460
[5] = tested on: SK-N-SH; assay: Compound was evaluated against Human cell line neuroblast SK-N-SH
[6] = tested on: SW-1736; assay: Compound was evaluated against Human cell line thyroid SW1736
[7] = tested on: SF-295; assay: Compound was evaluated against Human cell line CNS SF-295
[8] = tested on: OVCAR-3; assay: Compound was evaluated against Human cell line ovarian OVCAR-3
[9] = tested on: KM-20L2; assay: Compound was evaluated against Human cell line colon KM20L2
[10] = tested on: SK-MEL-5; assay: Compound was evaluated against Human cell line melanoma SK-MEL-5
[11] = tested on: BXPC-3; assay: Compound was evaluated against Human cell line pancreas BXPC-3
[12] = tested on: A498; assay: Compound was evaluated against Human cell line renal A498
[13] = tested on: Neisseria gonorrhoeae; assay: Antimicrobial activity against Neisseria gonorrhoeae
[14] = tested on: Staphylococcus aureus; assay: Antimicrobial activity against Staphylococcus aureus

Row | SMILES | GI50 [1] [µg/mL] | GI50 [2] [µg/mL] | EC50 [3] [µg/mL] | GI50 [4] [µg/mL] | GI50 [5] [µg/mL] | GI50 [6] [µg/mL] | GI50 [7] [µg/mL] | GI50 [8] [µg/mL] | GI50 [9] [µg/mL] | GI50 [10] [µg/mL] | GI50 [11] [µg/mL] | GI50 [12] [µg/mL] | MIC [13] [ug disk-1] | MIC [14] [ug disk-1]
1 | COc1ccc([C@@H](O)Cc2cc(OC)c(OC)c(OC)c2)cc1O | 4.8 (≈ 14.4 µM) | 7.6 (≈ 22.7 µM) | 32.9 (≈ 98.4 µM) | 9 (≈ 26.9 µM) | > 10 | > 10 |  |  |  |  |  |  |  | 
2 | COc1ccc([C@@H](O)[C@H](O)c2cc(OC)c(OC)c(OC)c2)cc1O | 2.1 (≈ 5.99 µM) | 3.5 (≈ 9.99 µM) | 19 (≈ 54.2 µM) | 4.4 (≈ 12.6 µM) | 1.5 (≈ 4.28 µM) | 6.1 (≈ 17.4 µM) | 5.7 (≈ 16.3 µM) | 4.5 (≈ 12.8 µM) | 8.2 (≈ 23.4 µM) | 4.9 (≈ 14 µM) | > 10 | > 10 |  | 
3 | COc1ccc([C@H](O)[C@@H](O)c2cc(OC)c(OC)c(OC)c2)cc1O | 0.6 (≈ 1.71 µM) | 2.1 (≈ 5.99 µM) | 2 (≈ 5.71 µM) | 2.5 (≈ 7.14 µM) | 0.28 (≈ 0.799 µM) | 1.8 (≈ 5.14 µM) | 0.52 (≈ 1.48 µM) | 0.38 (≈ 1.08 µM) | 0.52 (≈ 1.48 µM) | 0.7 (≈ 2 µM) | 3.9 (≈ 11.1 µM) | 0.91 (≈ 2.6 µM) |  | 
4 | COc1ccc(/C=C\c2cc(OC)c(OC)c(OC)c2)cc1OP(=O)([O-])O.[Na+] |  |  |  |  |  |  |  |  |  |  |  |  | 100 | 
5 | COc1ccc(CCc2cc(OC)c(OC)c(OC)c2)c(O)c1O |  |  |  |  |  |  |  |  |  |  |  |  | 25 | 
6 | COc1ccc(/C=C\c2cc(OC)c(OC)c(OC)c2)cc1O [COMBRETASTATIN A4] | 0.00065 (≈ 0.00205 µM) | 0.00076 (≈ 0.0024 µM) | 0.00027 (≈ 0.000853 µM) | 0.00056 (≈ 0.00177 µM) | 0.00026 (≈ 0.000822 µM) | 0.00071 (≈ 0.00224 µM) | < 0.001 | < 0.001 | 0.061 (≈ 0.193 µM) | 0.0002 (≈ 0.000632 µM) | 0.39 (≈ 1.23 µM) |  | 50 | 
7 | COc1ccc(/C=C\c2cc(OC)c(OC)c(OC)c2)c(O)c1O [COMBRETASTATIN A-1] |  |  |  |  |  |  |  |  |  |  |  |  | 50 | 100
